# What was measured:
# [1] = Observed pharmacokinetics of antiretrovirals in nonobese and obese individuals (SHCS therapeutic drug monitoring data and literature studies, noncompartmental analysis)
# Source text: (§1) We took several steps to analyse the impact of obesity on the ARVs exposure and response. First, we implemented our in-house PBPK model with our recently published virtual White obese population to simulate the pharmacokinetics of ARVs in nonobese and obese individuals. Next, we verified the simulations against the TDM data collected during the follow-up visits of the SHCS (multiple drug levels per individual were allowed [more information on the SHCS in the homonymous section in the Supplementary Material]). We then applied the verified model to extrapolate the pharmacokinetics across different obesity classes. Finally, the clinical relevance of obesity-related changes on drug response was evaluated by analyzing HIV viral load and the corresponding TDM values in obese and nonobese individuals in the SHCS.
# (§2) All ARV drug models, except for doravirine (Supplementary Table 1), were previously developed and verified to predict the pharmacokinetics in healthy and elderly PWH [6, 12]. […] The TDM data were excluded if the participant’s age was younger than 20 or older than 50 years to avoid the age-related confounding effect on the pharmacokinetics, if a nonstandard ARV dosage was used, and if concurrent medications with inhibitory or inducing effects were used. The pharmacokinetic parameters including peak plasma concentration (Cmax), area under the curve to time t (AUCt), and trough concentration (Cτ) were derived from the TDM data using noncompartmental analysis.
# (§3) A literature search was also performed to identify pharmacokinetic studies with ARVs conducted in obese and nonobese individuals. Data on the study design, characteristics of the participants, and pharmacokinetic results were collected. […] Available concentration-time profiles were digitalized using GetData Graph Digitizer V.2.26. The virtual trials were conducted by matching the participants’ demographics (eg, age, proportion of females, and BMI) and the ARV dosing regimen (Supplementary Table 2). The models were considered verified if the simulations were within 2-fold of observed data.
# The Swiss HIV Cohort Study (SHCS) is an ongoing, nationwide, multicenter, clinic-based prospective cohort study in Switzerland with continuous enrollment and follow-up (twice a year) of people with HIV (PWH). Socio-demographic, clinical and laboratory data are recorded in detail. […] The collection of therapeutic drug monitoring (TDM) data in the SHCS database was initiated in 1998. All available TDM data for each evaluated antiretroviral drug were extracted from the SHCS database representing 6210 and 575 data points for the verification of the simulations in non-obese and obese individuals, respectively.
# [2] = PBPK model virtual trials matched to the observed studies (model verification, nonobese vs obese); parameters: species or system human
# Source text: as §1, §2, §3
# HIV viral load = assay: Drug response in obese versus nonobese participants in the SHCS (concentration below efficacy threshold and viral load >50 copies/mL)
# Description: The viral load was analyzed in conjunction with the TDM data to evaluate whether a decrease in ARV exposure in obese PWH is associated with a viral load of more than 50 copies/mL (the viral load measured on the date of the TDM assessment was considered for this evaluation).
# CYP3A4 = assay: Doravirine PBPK model parameter: CYP3A4 intrinsic clearance; assay type: in vitro ADME; details: Retrograde calculation
# Source text: Supplementary Table 1. Doravirine PBPK model parameters.
# [3] = nonobese, standard oral dose at steady state; GM (mean for etravirine, emtricitabine, tenofovir); literature studies only, ref Supplementary Table 2 [9-16, 21-24]; cited from earlier work
# [4] = parameters: method as in earlier work; details: PBPK model parameter, supplement reference list; cited from earlier work
# [5] = parameters: method as in earlier work; details: PBPK model parameter, supplement reference list; cited from earlier work; remark: listed apart in the source
# [6] = clinical study; cited from earlier work
compound,measurement,setting,value
"Cn1c(Cn2ccc(C(F)(F)F)c(Oc3cc(Cl)cc(C#N)c3)c2=O)n[nH]c1=O [Doravirine, doravirine]","Cτ, observed, obese individuals","[1]; obese (BMI >=30, range per drug), standard oral dose at steady state, GM (mean for etravirine), SHCS TDM data with or without literature data",513 ng/mL
same,"Cτ, Ratio Obese/Nonobese, Observed",[1]; observed data,1.27
same,"Cτ, Ratio (Predicted Ratio Obese/Nonobese)/(Observed Ratio Obese/Nonobese)",[2],0.79
same,"AUCt, Ratio Predicted/Observed, Nonobese",[2]; nonobese individuals,1.00
same,"Cmax, Ratio Predicted/Observed, Nonobese",[2]; nonobese individuals,1.10
same,"Cτ, Ratio Predicted/Observed, Nonobese",[2]; nonobese individuals,0.86
same,"t1/2, Ratio Predicted/Observed, Nonobese",[2]; nonobese individuals,1.03
same,"Cτ, Ratio Predicted/Observed, Obese",[2]; obese individuals,0.68
same,Predictions within x-fold of observed clinical data,"[2]; pharmacokinetic parameters in obese and nonobese individuals, 1.25-fold 'for the most part'",≤ 1.25 fold
same,% PWH with concentration below efficacy threshold,HIV viral load; BMI 18.5–30 kg/m^2,0%
same,% PWH with virological failure amongst those with concentration below efficacy threshold,"HIV viral load; BMI 18.5–30 kg/m^2, viral load above 50 copies/mL",0%
same,% PWH with concentration below efficacy threshold,HIV viral load; BMI >30 kg/m^2,25%
same,% PWH with virological failure amongst those with concentration below efficacy threshold,"HIV viral load; BMI >30 kg/m^2, viral load above 50 copies/mL",0%
same,CYP3A4 CLint (intrinsic clearance),CYP3A4,0.032 µl/min/pmol enzyme
same,"AUCt, observed, nonobese individuals",[3],17 498 ng*h/mL
same,"Cmax, observed, nonobese individuals",[3],1226 ng/mL
same,"Cτ, observed, nonobese individuals",[3],404 ng/mL
same,"t1/2, observed, nonobese individuals",[3],13.5 h
same,drug type,[4],Monoprotic base
same,log P (octanol-water partition coefficient),[4],3.0
same,pKa1,[4],9.5
same,Apparent permeability,[5],25 10^-6 cm/sec
same,BP (blood-plasma-ratio),[5],1.0
same,CLrenal (renal clearance),[5],0.566 L/h
same,fup (fraction unbound in plasma),[5],0.24
same,Increase in Cτ in obese compared with nonobese PWH,[6],22%

# Source: PMC10810714, “Antiretroviral Drug Exposure and Response in Obese and Morbidly Obese People With Human Immunodeficiency Virus (HIV): A Study Combining Modelling and Swiss HIV Cohort Data” (Clinical Infectious Diseases: An Official Publication of …, 2023)
